Test results reported in the supplement of paper PMC8617591.

Tests used:
[1] = tested on: Mycobacterium tuberculosis Erdman (autoluminescent); experiment: total FIC50 (Loewe) at 50% inhibition, three-drug combination (log2); higher = more antagonistic
Description: (§1)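 DiaMOND equipotent three-drug combination dose responses (10 doses, 1.5- or 2-fold spacing, centred on IC90) against autoluminescent M. tuberculosis Erdman in 8 in vitro models. Read-out is OD600, or luminescence for the intracellular and dormancy models, normalised to untreated wells. Hill-fit Einf, AUC25 and GRinf are potency metrics; FIC50 and FIC90 are total Loewe fractional inhibitory concentrations as log2 (negative = synergy).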

[2] = tested on: Mycobacterium tuberculosis Erdman (autoluminescent); experiment: total FIC90 (Loewe) at 90% inhibition, three-drug combination (log2); higher = more antagonistic
Description: as §1

[3] = tested on: Mycobacterium tuberculosis Erdman (autoluminescent); experiment: Einf, fitted maximum growth inhibition of three-drug combination (fraction); higher = stronger maximal inhibition
Description: as §1

[4] = tested on: Mycobacterium tuberculosis Erdman (autoluminescent); experiment: AUC25, normalised area under dose response up to IC25 (three-drug combination) (fraction (0-1)); higher = more potent at low dose
Description: as §1

[5] = tested on: Mycobacterium tuberculosis Erdman (autoluminescent); experiment: GRinf, maximum normalised growth rate inhibition (three-drug combination) (unitless (-1 to 1)); higher = less effect (negative = killing)
Description: as §1

CC(C)/N=c1\cc2n(-c3ccc(Cl)cc3)c3ccccc3nc-2cc1Nc1ccc(Cl)cc1 [clofazimine] + CC[C@@H](CO)NCCN[C@@H](CC)CO [ethambutol] + COc1c(N2C[C@@H]3CCCN[C@@H]3C2)c(F)cc2c(=O)c(C(=O)O)cn(C3CC3)c12 [moxifloxacin]
Details | AUC25, [4] | Einf, [3] | GRinf, [5] | total FIC50, [1] | total FIC90, [2]
in vitro model: acidic pH 5.7, time point: constant (~7 days, model-specific) | 0.115 | 0.672 | -0.00432 | 1.25 | –
in vitro model: acidic pH 5.7, time point: terminal (~4-5 doublings, model-specific) | 0.0596 | 0.925 | -0.127 | 0.64 | -0.564
in vitro model: intracellular J774, time point: constant = terminal | – | 0.966 | -0.457 | – | -0.92

Details | AUC25, [4] | Einf, [3] | GRinf, [5] | total FIC50, [1] | total FIC90, [2]
in vitro model: butyrate, time point: constant (~7 days, model-specific) | 0.11 | 0.96 | -0.103 | 0.505 | –
in vitro model: butyrate, time point: terminal (~4-5 doublings, model-specific) | 0.0834 | 0.979 | -0.104 | 0.581 | 0.553
in vitro model: cholesterol 0.05 mM, time point: constant (~7 days, model-specific) | 0.123 | 0.651 | -0.615 | – | –
in vitro model: cholesterol 0.05 mM, time point: terminal (~4-5 doublings, model-specific) | 0.117 | 0.885 | -0.144 | 1.19 | –
in vitro model: cholesterol-high 0.2 mM, time point: constant (~7 days, model-specific) | 0.0933 | 0.95 | -0.699 | 0.429 | –
in vitro model: cholesterol-high 0.2 mM, time point: terminal (~4-5 doublings, model-specific) | 0.0951 | 1 | -0.973 | 0.534 | 0.957
in vitro model: dormancy (butyrate + nitrate, low O2), time point: constant (~7 days, model-specific) | 0.0862 | 0.817 | 0.451 | 0.137 | –
in vitro model: dormancy (butyrate + nitrate, low O2), time point: terminal (~4-5 doublings, model-specific) | 0.113 | 0.977 | -0.415 | 0.0118 | 0.798
in vitro model: standard 7H9 glycerol, time point: constant = terminal | 0.0915 | 0.971 | -0.184 | 0.258 | 0.732
in vitro model: valerate, time point: constant (~7 days, model-specific) | 0.132 | 0.864 | -0.0325 | 0.987 | –
in vitro model: valerate, time point: terminal (~4-5 doublings, model-specific) | 0.0712 | 0.903 | 0.0757 | 0.489 | -1.39

CC(C)/N=c1\cc2n(-c3ccc(Cl)cc3)c3ccccc3nc-2cc1Nc1ccc(Cl)cc1 [clofazimine] + CC[C@@H](CO)NCCN[C@@H](CC)CO [ethambutol] + NC(=O)c1cnccn1 [pyrazinamide]
Details | AUC25, [4] | Einf, [3] | GRinf, [5] | total FIC50, [1] | total FIC90, [2]
in vitro model: acidic pH 5.7, time point: constant (~7 days, model-specific) | 0.112 | 0.725 | -0.183 | -0.812 | –
in vitro model: acidic pH 5.7, time point: terminal (~4-5 doublings, model-specific) | 0.0918 | 0.954 | -0.232 | 0.156 | -0.781
in vitro model: intracellular J774, time point: constant = terminal | – | 1 | -0.398 | – | -0.408

Details | AUC25, [4] | Einf, [3] | GRinf, [5] | total FIC50, [1] | total FIC90, [2]
in vitro model: butyrate, time point: constant (~7 days, model-specific) | 0.1 | 0.913 | -0.122 | -0.0529 | –
in vitro model: butyrate, time point: terminal (~4-5 doublings, model-specific) | 0.075 | 0.953 | -0.0327 | 0.0941 | -0.127
in vitro model: cholesterol 0.05 mM, time point: constant (~7 days, model-specific) | 0.147 | 0.758 | -0.487 | – | –
in vitro model: cholesterol 0.05 mM, time point: terminal (~4-5 doublings, model-specific) | 0.123 | 0.86 | -0.157 | 1.39 | –
in vitro model: cholesterol-high 0.2 mM, time point: constant (~7 days, model-specific) | 0.1 | 0.955 | -0.718 | 0.509 | –
in vitro model: cholesterol-high 0.2 mM, time point: terminal (~4-5 doublings, model-specific) | 0.0851 | 0.998 | -0.902 | 0.581 | 0.758
in vitro model: dormancy (butyrate + nitrate, low O2), time point: constant (~7 days, model-specific) | 0.0979 | 0.826 | 0.349 | -0.344 | –
in vitro model: dormancy (butyrate + nitrate, low O2), time point: terminal (~4-5 doublings, model-specific) | 0.124 | 0.999 | -0.842 | 0.325 | 1.52
in vitro model: standard 7H9 glycerol, time point: constant = terminal | 0.109 | 0.939 | -0.163 | 0.315 | –
in vitro model: valerate, time point: constant (~7 days, model-specific) | 0.117 | 0.792 | 0.253 | 0.627 | –
in vitro model: valerate, time point: terminal (~4-5 doublings, model-specific) | 0.0625 | 0.898 | 0.205 | 0.395 | –

CC(C)/N=c1\cc2n(-c3ccc(Cl)cc3)c3ccccc3nc-2cc1Nc1ccc(Cl)cc1 [clofazimine] + CC[C@@H](CO)NCCN[C@@H](CC)CO [ethambutol] + NNC(=O)c1ccncc1 [isoniazid]
Details | AUC25, [4] | Einf, [3] | GRinf, [5] | total FIC50, [1] | total FIC90, [2]
in vitro model: acidic pH 5.7, time point: constant (~7 days, model-specific) | 0.0868 | 0.732 | -0.0169 | 0.498 | –
in vitro model: acidic pH 5.7, time point: terminal (~4-5 doublings, model-specific) | 0.0876 | 0.955 | -0.0829 | 0.678 | 0.618
in vitro model: intracellular J774, time point: constant = terminal | – | 0.988 | -0.375 | – | -0.505

Details | AUC25, [4] | Einf, [3] | GRinf, [5] | total FIC50, [1] | total FIC90, [2]
in vitro model: butyrate, time point: constant (~7 days, model-specific) | 0.0914 | 0.946 | -0.098 | 0.523 | –
in vitro model: butyrate, time point: terminal (~4-5 doublings, model-specific) | 0.0804 | 0.976 | -0.12 | 0.504 | 0.513
in vitro model: cholesterol 0.05 mM, time point: constant (~7 days, model-specific) | 0.117 | 0.751 | -0.165 | 0.257 | –
in vitro model: cholesterol 0.05 mM, time point: terminal (~4-5 doublings, model-specific) | 0.126 | 0.852 | -0.135 | 1.57 | –
in vitro model: cholesterol-high 0.2 mM, time point: constant (~7 days, model-specific) | 0.0601 | 0.951 | -0.518 | 0.899 | –
in vitro model: cholesterol-high 0.2 mM, time point: terminal (~4-5 doublings, model-specific) | 0.0945 | 0.998 | -0.932 | 0.577 | 0.985
in vitro model: dormancy (butyrate + nitrate, low O2), time point: constant (~7 days, model-specific) | 0.0906 | 0.807 | 0.507 | 0.0627 | –
in vitro model: dormancy (butyrate + nitrate, low O2), time point: terminal (~4-5 doublings, model-specific) | 0.132 | 0.998 | -0.444 | -0.121 | 0.753
in vitro model: standard 7H9 glycerol, time point: constant = terminal | 0.118 | 0.954 | -0.121 | -0.209 | –
in vitro model: valerate, time point: constant (~7 days, model-specific) | 0.128 | 0.873 | 0.0565 | 0.974 | –
in vitro model: valerate, time point: terminal (~4-5 doublings, model-specific) | 0.0871 | 0.919 | 0.0494 | 0.446 | -0.137
